Reference: the NIST ThermoML archive (doi:10.1016/j.tca.2016.05.013)
± gives the expanded uncertainty stated by the source.

What was measured:
[1] = mn = molality of the nth substance listed, in mol/kg; conditions: 86.8 kPa, Liquid; for viscosity: Falling or rolling sphere viscometry; for speed of sound: Frequency=3 MHz, Sing-around technique in a fixed-path interferometer; for mass density: Vibrating tube method
[2] = refractive index (Na D-line) (dimensionless); mn = molality of the nth substance listed, in mol/kg; conditions: 86.8 kPa, Liquid, Standard Abbe refractometry

CCCCn1cc[n+](C)c1.O=C([O-])c1ccccc1O [1-butyl-3-methylimidazolium salicylate] + O
Conditions	mass density, [1] [kg/m3]	refractive index, [2]	speed of sound, [1] [m/s]	viscosity, [1] [mPa·s]
288.15 K, m1 = 0.1012	–	–	–	1.289 ± 0.035
288.15 K, m1 = 0.1032	1004.94 ± 1.2	1.3381 ± 0.004	1484.4 ± 1.2	1.296 ± 0.035
288.15 K, m1 = 0.1055	1005.04 ± 1.2	1.3383 ± 0.004	1484.4 ± 1.2	–
288.15 K, m1 = 0.2001	1010.28 ± 3.6	1.3427 ± 0.004	1499.1 ± 1.2	–
288.15 K, m1 = 0.2005	1010.45 ± 3.6	1.3429 ± 0.004	1499.5 ± 1.2	–
288.15 K, m1 = 0.2124	–	–	–	1.432 ± 0.036
288.15 K, m1 = 0.2146	–	–	–	1.44 ± 0.036
288.15 K, m1 = 0.2965	1015.79 ± 1.2	1.3479 ± 0.004	1513.9 ± 1.3	–
288.15 K, m1 = 0.3002	1015.82 ± 1.2	1.3479 ± 0.004	1513.6 ± 1.3	–
288.15 K, m1 = 0.3146	–	–	–	1.535 ± 0.036
288.15 K, m1 = 0.3152	–	–	–	1.536 ± 0.036
298.15 K, m1 = 0.1012	–	–	–	1.037 ± 0.035
298.15 K, m1 = 0.1032	1002.65 ± 1.3	1.3376 ± 0.004	1512 ± 1.2	1.042 ± 0.035
298.15 K, m1 = 0.1055	1002.65 ± 1.3	1.3376 ± 0.004	1511.9 ± 1.2	–
298.15 K, m1 = 0.2001	1007.67 ± 10	1.342 ± 0.004	1524.5 ± 1.2	–
298.15 K, m1 = 0.2005	1007.91 ± 1.9	1.342 ± 0.004	1524.8 ± 1.2	–
298.15 K, m1 = 0.2124	–	–	–	1.159 ± 0.035
298.15 K, m1 = 0.2146	–	–	–	1.162 ± 0.035
298.15 K, m1 = 0.2965	1012.99 ± 1.3	1.3468 ± 0.004	1537 ± 1.3	–
298.15 K, m1 = 0.3002	1012.91 ± 1.5	1.3468 ± 0.004	1537 ± 1.3	–
298.15 K, m1 = 0.3146	–	–	–	1.256 ± 0.035
298.15 K, m1 = 0.3152	–	–	–	1.253 ± 0.035
308.15 K, m1 = 0.1012	–	–	–	0.869 ± 0.035
308.15 K, m1 = 0.1032	999.4 ± 1.3	1.3365 ± 0.004	1532.3 ± 1.2	0.872 ± 0.035
308.15 K, m1 = 0.1055	999.44 ± 1.3	1.3365 ± 0.004	1532.4 ± 1.2	–
308.15 K, m1 = 0.2001	1004.28 ± 8	1.3407 ± 0.004	1543.5 ± 1.3	–
308.15 K, m1 = 0.2005	1004.44 ± 1.9	1.3408 ± 0.004	1543.3 ± 1.3	–
308.15 K, m1 = 0.2124	–	–	–	0.981 ± 0.035
308.15 K, m1 = 0.2146	–	–	–	0.986 ± 0.035
308.15 K, m1 = 0.2965	1009.39 ± 1.5	1.3456 ± 0.004	1553.8 ± 1.3	–
308.15 K, m1 = 0.3002	1009.41 ± 1.5	1.3455 ± 0.004	1553.8 ± 1.3	–
308.15 K, m1 = 0.3146	–	–	–	1.078 ± 0.035
308.15 K, m1 = 0.3152	–	–	–	1.076 ± 0.035
318.15 K, m1 = 0.1012	–	–	–	0.748 ± 0.034
318.15 K, m1 = 0.1032	995.42 ± 1.2	1.335 ± 0.004	1546.8 ± 1.2	0.751 ± 0.034
318.15 K, m1 = 0.1055	995.43 ± 1.2	1.3352 ± 0.004	1547.3 ± 1.2	–
318.15 K, m1 = 0.2001	1000.19 ± 2	1.3393 ± 0.004	1555.9 ± 1.3	–
318.15 K, m1 = 0.2005	1000.27 ± 2	1.3395 ± 0.004	1556 ± 1.3	–
318.15 K, m1 = 0.2124	–	–	–	0.87 ± 0.035
318.15 K, m1 = 0.2146	–	–	–	0.876 ± 0.035
318.15 K, m1 = 0.2965	1005.07 ± 1.2	1.344 ± 0.004	1565 ± 1.3	–
318.15 K, m1 = 0.3002	1004.98 ± 1.2	1.344 ± 0.004	1564.8 ± 1.3	–
318.15 K, m1 = 0.3146	–	–	–	0.962 ± 0.035
318.15 K, m1 = 0.3152	–	–	–	0.96 ± 0.035
